One may read the Kd as the free concentration of one partner at which half of the binding sites on the other are occupied at equilibrium, for simple one-to-one binding. A word on the IC50: it is the concentration that gives 50% inhibition.

Where two headings read alike, the source gives them in different places. A value given as a limit tells only on which side of the number the result lay.

Test [1] deals with MCL1 (Homo sapiens, UniProt Q07820). Nature of the test: MCL1 affinity assay (competition binding, qPCR readout). To be noted: recombinant MCL1, 11-point 3-fold dilution series. The procedure, abridged:
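Kds derived from an 11-point 3-fold compound series measured by qPCR of protein eluted from ligand beads. Recombinant, DNA-tagged protein from E. coli or HEK-293 was mixed with compound and peptide-liganded beads in SeaBlock/PBS/Tween/DTT buffer for 1 hour at room temperature (0.9% DMSO).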
For orientation: In qPCR the cycle at which signal appears reflects the starting amount.

The target in test [2] is BCL2 (Homo sapiens, UniProt P10415). Kind of test: BCL2 affinity assay (competition binding, qPCR readout). The note with it: recombinant BCL2, 11-point 3-fold dilution series. How it is done: (§1) Recombinant MCL1, BCL2 and BCXL proteins were prepared in either an E. coli host derived from the BL21 strain or in HEK-293 cells. The recombinant proteins were subsequently tagged with DNA for qPCR detection. Streptavidin-coated magnetic beads were treated for 30 minutes at room temperature with the respective biotinylated peptide ligands for each recombinant protein to generate affinity resins for the assays. The liganded beads were blocked with excess biotin and washed with blocking buffer (SeaBlock (Pierce), 1% BSA, 0.05% Tween 20, 1 mM DTT) to remove unbound ligand and to reduce nonspecific binding. Binding reactions were assembled by combining recombinant protein, liganded affinity beads, and test compounds in 1× binding buffer (20% SeaBlock, 0.17×PBS, 0.05% Tween 20, 6 mM DTT). Test compounds were prepared as 111X stocks in 100% DMSO. The compounds were then diluted directly into the assays such that the final concentration of DMSO was 0.9%. The assay plates were incubated at room temperature with shaking for 1 hour and the affinity beads were washed with wash buffer (1×PBS, 0.05% Tween 20). The beads were then re-suspended in elution buffer (1×PBS, 0.05% Tween 20, 0.5 μM non-biotinylated affinity ligand) and incubated at room temperature with shaking for 30 minutes. The recombinant protein concentration in the eluates was measured by qPCR. Kds were determined using an 11-point 3-fold compound dilution series with three DMSO control points.
Chain of BCL2 (P10415 whole entry): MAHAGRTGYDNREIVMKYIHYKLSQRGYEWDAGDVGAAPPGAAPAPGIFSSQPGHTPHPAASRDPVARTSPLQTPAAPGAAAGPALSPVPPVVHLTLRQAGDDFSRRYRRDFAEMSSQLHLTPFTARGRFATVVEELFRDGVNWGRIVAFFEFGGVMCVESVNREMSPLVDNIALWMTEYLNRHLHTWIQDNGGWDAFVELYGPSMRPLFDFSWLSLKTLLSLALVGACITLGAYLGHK

The target in test [3] is BCLXL (Homo sapiens, UniProt Q07817). Kind of test: BCLXL affinity assay (competition binding, qPCR readout). To be noted: recombinant BCLXL, 11-point 3-fold dilution series. How it is done: as §1
Chain of BCLXL (Q07817 whole entry): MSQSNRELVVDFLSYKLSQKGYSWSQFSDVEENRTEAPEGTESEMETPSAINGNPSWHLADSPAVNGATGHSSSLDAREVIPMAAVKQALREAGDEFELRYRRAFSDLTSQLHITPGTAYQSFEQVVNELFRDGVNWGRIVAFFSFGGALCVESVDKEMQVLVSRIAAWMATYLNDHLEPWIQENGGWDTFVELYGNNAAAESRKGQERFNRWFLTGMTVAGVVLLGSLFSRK
Test [4] deals with drug-sensitive cell lines of Table 3. Nature of the test: Cell line growth retardation assay, sensitive cohort. Format: cell-based, Human. To be noted: for IC50: arithmetic mean of IC50s over the sensitive cohort of Table 3, 6 days growth, read-out: AvgSen IC50; for Fold Diff: average IC50 of resistant cohort divided by average IC50 of sensitive cohort. The gist of the method:
(§2)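 Over 6 days of treatment at six concentrations (0.0032–10 μM), given after a 24 h post-seeding rest, population doublings were counted by imaging against a pre-dose baseline and compared with vehicle. Per-line IC50 values came from dose-response fits; cohort averages used arithmetic means, with sensitive/resistant grouping based on response to reference MCL1 inhibitors.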

For test [5], the system named is drug-resistant cell lines of Table 3. Kind of test: Cell line growth retardation assay, resistant cohort. The test is classed as cell-based, Human. The note with it: arithmetic mean of IC50s over the resistant cohort of Table 3, 6 days growth, read-out: AvgRes IC50. The gist of the method: as §2

Chain of MCL1 (Q07820 whole entry): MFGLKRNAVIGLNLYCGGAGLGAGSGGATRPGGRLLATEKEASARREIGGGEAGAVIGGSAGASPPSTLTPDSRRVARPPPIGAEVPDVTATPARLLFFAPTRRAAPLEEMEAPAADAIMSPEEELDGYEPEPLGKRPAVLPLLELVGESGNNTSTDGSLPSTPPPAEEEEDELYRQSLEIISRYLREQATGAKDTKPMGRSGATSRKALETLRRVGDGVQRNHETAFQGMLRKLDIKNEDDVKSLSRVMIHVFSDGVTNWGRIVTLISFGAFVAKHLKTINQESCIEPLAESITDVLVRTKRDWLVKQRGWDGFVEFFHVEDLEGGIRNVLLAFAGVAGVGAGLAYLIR

With `COc1ccccc1-c1nccc(COc2ccccc2C[C@@H](Oc2nsc3cnc(C4=CCOCC4)c(-c4ccc(OCCN5CCN(C)CC5)c(Cl)c4C)c23)C(=O)O)n1` (atropisomer, axis not shown) [Compound 54], the Kd in test [1] is at most 100 nM; in test [2], over 1500 nM; in test [3] it was over 1500 nM. Moreover, the IC50 in test [4] (Homo sapiens, 144 h) was 1000 to 5000 nM; in test [5] (Homo sapiens, 144 h), over 5000 nM. In addition, the “Fold Diff” value in test [4] was “− (“−” represents a fold difference less than 10)”.
On to `Cc1c(-c2c(-c3cccc(C(F)(F)F)c3)ncc3snc(O[C@H](Cc4ccccc4OCc4ccnn4CC(F)(F)F)C(=O)O)c23)ccc(OCCN2CCN(C)CC2)c1Cl` (atropisomer, axis not shown) [Compound 22], for which the Kd was 501 to 1500 nM in test [1], over 1500 nM in test [2] and over 1500 nM in test [3]. For the same molecule, the IC50 in test [4] (Homo sapiens, 144 h) is 1000 to 5000 nM; in test [5] (Homo sapiens, 144 h), over 5000 nM. In addition, the “Fold Diff” value in test [4] is recorded as “− (“−” represents a fold difference less than 10)”.
In the case of `Cc1c(-c2c(-c3cccc4c3ccn4C)ncc3snc(O[C@H](Cc4ccccc4OCc4ccnn4CC(F)(F)F)C(=O)O)c23)ccc(OCCN2CCN(C)CC2)c1Cl` (atropisomer, axis not shown) [Compound 15], the figures for the Kd in test [1], in test [2] and in test [3] were 501 to 1500 nM, 501 to 1500 nM and over 1500 nM, respectively. Besides, the IC50 in test [4] (Homo sapiens, 144 h) is over 5000 nM; in test [5] (Homo sapiens, 144 h) it was over 5000 nM. The “Fold Diff” value in test [4] is given as “− (“−” represents a fold difference less than 10)”.
For `COc1ccccc1-c1nccc(COc2ccccc2C[C@@H](Oc2nsc3cnc(-c4ccccn4)c(-c4ccc(OCCN5CCN(C)CC5)c(Cl)c4C)c23)C(=O)O)n1` (atropisomer, axis not shown) [Compound 53], the Kd is at most 100 nM in test [1], over 1500 nM in test [2] and over 1500 nM in test [3]. In addition, the IC50 in test [4] (Homo sapiens, 144 h) was over 5000 nM; in test [5] (Homo sapiens, 144 h) it was over 5000 nM. Moreover, the “Fold Diff” value in test [4] was “− (“−” represents a fold difference less than 10)”.
Take `COc1cccc(-c2ncc3snc(O[C@H](Cc4ccccc4OCc4ccnc(-c5ccccc5OC)n4)C(=O)O)c3c2-c2ccc(OCCN3CCCC3)c(Cl)c2C)c1` (atropisomer, axis not shown) [Compound 50]: the Kd in test [1] is at most 100 nM; in test [2] it was over 1500 nM; in test [3] it was over 1500 nM. For the same molecule, the IC50 in test [4] (Homo sapiens, 144 h) is at most 1000 nM; in test [5] (Homo sapiens, 144 h), over 5000 nM. The “Fold Diff” value in test [4] is “+ (“+” represents a fold difference of 10 or more)”.
As to `Cc1c(-c2c(-c3csc4ccccc34)ncc3snc(O[C@H](Cc4ccccc4OCc4ccnn4CC(F)(F)F)C(=O)O)c23)ccc(OCCN2CCN(C)CC2)c1Cl` (atropisomer, axis not shown) [Compound 19], the Kd in test [1], in test [2] and in test [3] was over 1500 nM in each case. Further, the IC50 in test [4] (Homo sapiens, 144 h) was 1000 to 5000 nM; in test [5] (Homo sapiens, 144 h), over 5000 nM. Further, the “Fold Diff” value in test [4] was “− (“−” represents a fold difference less than 10)”.
Consider `COc1cccc(-c2ncc3snc(O[C@H](Cc4ccccc4OCc4ccnc(-c5ccccc5OC)n4)C(=O)O)c3c2-c2ccc(OC[C@@H]3CCCN3C)c(Cl)c2C)c1` (atropisomer, axis not shown) [Compound 49], for which the Kd in test [1] is at most 100 nM; in test [2], over 1500 nM; in test [3], over 1500 nM. Moreover, the values for the IC50 in test [4] and in test [5] were 1000 to 5000 nM and over 5000 nM, respectively. Also, in test [4], the “Fold Diff” value is on record as “− (“−” represents a fold difference less than 10)”.
For `Cc1c(-c2c(-c3cccc4cc[nH]c34)ncc3snc(O[C@H](Cc4ccccc4OCc4ccnn4CC(F)(F)F)C(=O)O)c23)ccc(OCCN2CCN(C)CC2)c1Cl` (atropisomer, axis not shown) [Compound 18], the Kd in test [1], in test [2] and in test [3] was over 1500 nM throughout. Moreover, the IC50 is over 5000 nM in test [4] (Homo sapiens, 144 h) and over 5000 nM in test [5] (Homo sapiens, 144 h). Moreover, the “Fold Diff” value in test [4] is “− (“−” represents a fold difference less than 10)”.

These data come from US20230116602A1, “MCL1 INHIBITORS AND USES THEREOF” (California Institute of Technology, priority 2019, published 2023).
